Test results as given in PubChem BioAssay AID1996.
Values after ≈ are worked out from the molar mass of the structure shown.

Details: buffer; pH 7.4; 200.0 µM

| solubility kinetic [µg/mL] | SMILES |
| --- | --- |
| 35.2 (≈ 138 µM) | Cc1cc(C)nc(NC(=O)c2ccc(C)c(C)c2)n1 |
| > 44.7 | O=C(NCc1ccccc1)C(=O)Nc1cccc(C(=O)O)c1 |
| > 52.3 | COc1ccc(Cl)cc1NC(=O)CN(C)C(=O)/C=C/c1ccco1 |
| 2.5 (≈ 7.13 µM) | O=S(=O)(c1ccc(Cl)nc1)N1CCC(Cc2ccccc2)CC1 |
| 0.9 (≈ 2.75 µM) | CCOc1ccccc1C1CC(=O)Nc2cc(OC)c(OC)cc21 (stereo not given) |
| < 0.4 | CN1C(=O)/C(=C/c2ccc(OCc3cccc(F)c3)cc2)NC1=S |
| > 43.1 | O=C1NC2=C(C(=O)CCC2)C(c2cccc([N+](=O)[O-])c2)N1 (stereo not given) |
| > 38.6 | O=C(NCc1cccnc1)c1ccc([N+](=O)[O-])cc1 |
| 39.1 (≈ 146 µM) | Cc1ccc(C(=O)N2CC=C(c3ccccc3)CC2)o1 |
| 0.6 (≈ 2.37 µM) | O=C1Nc2ccc3sc4ccccc4c3c2C1=O |
| 0.3 (≈ 0.812 µM) | Cc1ccc(C(=O)N2CCN=C2SCc2ccc([N+](=O)[O-])cc2)cc1C |
| 49 (≈ 143 µM) | O=S(=O)(NCc1csc(-c2cccs2)n1)c1cccs1 |
| 16.6 (≈ 50.9 µM) | CC(=O)Nc1ccc(C(=O)NC2CCSc3ccccc32)cc1 (stereo not given) |
| 2 (≈ 6.42 µM) | Cc1ccc2c(CN(C)Cc3cccc(F)c3)cc(=O)oc2c1 |
| 16.6 (≈ 81.7 µM) | CC(=O)c1csc(-c2ccccc2)n1 |
| 6.1 (≈ 21.5 µM) | O=C1SC(Cc2ccccc2)C(=O)N1c1ccccc1 (stereo not given) |
| > 47.8 | CC(=O)N(C)c1ccc(N=Cc2c(O)ccc3ccccc23)cc1 |
| > 43.7 | COc1ccccc1NC(=O)C(C)Sc1nccn1C (stereo not given) |
| < 0.2 | Cc1cc(C)c(C#N)c(SCc2ccc([N+](=O)[O-])cc2)n1 |
| > 45 | O=[N+]([O-])c1ccc(N2CCN(c3ccc(O)cc3)CC2)cn1 |

| solubility kinetic [µg/mL] | SMILES |
| --- | --- |
| 12 (≈ 46.8 µM) | CCc1ccc(-c2csc3nc[nH]c(=O)c23)cc1 |
| 54.4 (≈ 145 µM) | O=C(c1cnc2sccn2c1=O)N1CCN(c2ccccc2Cl)CC1 |
| 30.2 (≈ 102 µM) | CC1CC(=O)Nc2ccccc2N1C(=O)Nc1ccccc1 (stereo not given) |
| > 51.9 | O=C(c1cccc(Br)c1)N1CCN(c2ccccn2)CC1 |
| > 59.8 | CC(=O)N1CCN(c2ccc(S(=O)(=O)N3CCOCC3)cc2[N+](=O)[O-])CC1 |
| 0.9 (≈ 3.2 µM) | CCc1ccc(OCC(=O)N2CCc3ccccc32)cc1 |
| 5.2 (≈ 17.4 µM) | O=C(NCCc1c[nH]c2ccccc12)c1ccc(Cl)cc1 |
| 47 (≈ 144 µM) | COCC(=O)Nc1ccc(S(=O)(=O)Nc2nccs2)cc1 |
| > 46.7 | CC(=O)NC1C(Oc2ccccc2C)OC(CO)C(O)C1O (stereo not given) |
| 44.3 (≈ 147 µM) | OC(CNC1Cc2ccccc2C1)COc1ccc(F)cc1 (stereo not given) |
| > 46.5 | Cc1cnc(C(=O)OCc2cc(=O)n3c(C)cccc3n2)cn1 |
| 50.9 (≈ 145 µM) | O=C(/C=C/c1cccc([N+](=O)[O-])c1)N1CCN(Cc2ccccc2)CC1 |
| > 37.8 | Cn1ncc([N+](=O)[O-])c1C(=O)NC1CCCCC1 |
| > 36 | O=C(CCCc1ccccc1)Nc1ccccn1 |
| 6.8 (≈ 19.9 µM) | Cc1onc(NC(=O)NC(=O)c2ccccc2F)c1Br |
| > 39.7 | Cn1c(-c2cccs2)[n+](C)c2ccccc21.[Cl-] |
| > 50.7 | Cl.O=C(OCCN1CCCCC1)C1(c2ccccc2)CCCC1 |
| > 39.8 | OCCN1CCN(C(=S)Nc2ccccc2)CC1 |
| 31.4 (≈ 143 µM) | COc1ccc(NCc2ccsc2)cc1 |
| > 42.4 | Cc1cccc(C)c1NC(=O)C1CCCCN1C.Cl (stereo not given) |

| solubility kinetic [µg/mL] | SMILES |
| --- | --- |
| > 28.5 | Cc1nnc(SCC(=O)O)s1 |
| 9.2 (≈ 27.9 µM) | O=C(Cn1cnc2ccccc2c1=O)c1ccc(OC(F)F)cc1 |
| 29.9 (≈ 136 µM) | N/C(=N\O)c1ccccc1N1CCCCC1 |
| > 72.8 | CCCCN(C(=O)C1CC(=O)N(c2ccc3c(c2)OCCO3)C1)c1c(N)n(CCC)c(=O)[nH]c1=O (stereo not given) |
| 2.2 (≈ 8.55 µM) | Cc1ccc(NC(=O)NCc2cccn2C)cc1C |
| 1.2 (≈ 3.37 µM) | COc1cccc(Nc2nc(N)c([N+](=O)[O-])c(NCc3ccco3)n2)c1 |
| 40 (≈ 96.7 µM) | CN(C)S(=O)(=O)c1cccc(NC(=O)COC(=O)c2ccc3ccccc3n2)c1 |
| > 59.6 | Cc1noc(NS(=O)(=O)c2ccc(NC(=O)/C=C/c3ccccc3)cc2)c1C |
| > 45.4 | CN1C(=O)NC(c2cccc(F)c2)C2=C1CC(C)(C)CC2=O (stereo not given) |
| 36.3 (≈ 147 µM) | Cc1cccnc1Nc1ncnc(N)c1[N+](=O)[O-] |
| 46.8 (≈ 145 µM) | Cc1cc(C)cc(NC(=O)N2c3ccccc3NC(=O)CC2C)c1 (stereo not given) |
| 15 (≈ 54.3 µM) | O=C(Cc1ccc([N+](=O)[O-])cc1)NC1CCCCCC1 |
| > 48.5 | Cc1c(C)n(Cc2ccccc2)c2ncnc(NCCN(C)C)c12 |
| > 71.8 | O=C(O)CSc1nnc(-c2cccc(S(=O)(=O)N3CCOCC3)c2)n1-c1ccc(F)cc1 |
| > 42.8 | COC(=O)c1ccc(CN2C(=O)c3ccccc3C2=O)o1 |
| > 37.7 | CCC(=O)OCC(=O)Nc1ccc2c(c1)OCO2 |
| > 39.8 | NNC(=O)Cn1c(-c2ccccc2)cc2ccccc21 |
| 5.2 (≈ 17.5 µM) | NC(=O)c1cc(-c2csc(-c3cccnc3)n2)ccc1O |
| 38.1 (≈ 125 µM) | Oc1ccc(NCc2cccc(OCc3ccccc3)c2)cc1 |
| 1.2 (≈ 4.74 µM) | N#Cc1ccc(-c2csc(-c3ccno3)n2)cc1 |
